MIC90 data for three compounds are collected here from patent US9630977B2, “Cephalosporin derivatives and pharmaceutical compositions thereof” (Legochem Biosciences, Inc., priority 2011, dated 2017).

Values after ≈ are worked out from the molar mass of the structure shown. Where two headings read alike, the source gives them in different places.

The MIC90 is the lowest concentration that inhibits either 90% of growth or 90% of the strains tested, depending on the study.

Holding throughout (assay): In vitro antibacterial activity test (broth microdilution)
What all share (format): cell-based
Background: Dilution methods test growth across graded concentrations, often in twofold steps.

The subject of experiment [1] is K. pneumoniae β9. Particulars: Klebsiella pneumoniae. The method, then:
(§1) To evaluate antibacterial activity of each of the compounds of Examples 1 to 68, in vitro antibacterial activity test was performed.
(§2) The in vitro antibacterial activity was evaluated by measuring MIC90 (ug/mL) of each of the compounds of Examples 1 to 68, which is defined as the lowest concentration of an antibiotic that will inhibit the visible growth of 90% of microorganisms after incubation as compared with a control group to which the antibiotic is not treated. MIC90 values were measured by the broth microdilution method developed by the Clinical and Laboratory Standards Institute (CLSI) (see CLSI M7-A5, Methods for Dilution Antimicrobial Susceptibility Test for Bacteria that Grow Aerobically-Fifth Edition (2000): CLSI, Villanova, Pa.).
(§3) In vitro antibacterial activity was measured with respect to the following 19 clinical isolates: M. catarrhalis; P. aeruginosa (5 strains); K. pneumoniae (6 strains); A. baumannii (3 strains); E. coli (2 strains); A. calcoaceticus; and E. cloacae.
(§4) Test compounds each (the cephalosporin derivative compounds prepared in Examples 1 to 68) were dissolved in DMSO at the concentration of 10,240 ug/mL, were diluted by two fold with DMSO, and then were diluted by twenty fold with sterilized distilled water. The final concentration in the antibacterial activity test was in the range of […] to 128 ug/mL, and the final concentration of DMSO used as an adjuvant was 2.5% (V/V).

Experiment [2] relates to P. aeruginosa 43. Particulars: Pseudomonas aeruginosa. Here is the method: as §1, §2, §3, §4
In experiment [3] the test system is M. catarrhalis 2524. Particulars: Moraxella catarrhalis. The method, then:
as §1, §2, §3, §4

Experiment [4] has as its system E. coli β4. The note with it: Escherichia coli. Here is the method: as §1, §2, §3, §4
Experiment [5] has as its system P. aeruginosa 40. The method, then:
as §1, §2, §3, §4

Experiment [6] has as its system E. cloacae β19. The note with it: Enterobacter cloacae. The method, then: as §1, §2, §3, §4
Experiment [7] deals with P. aeruginosa 1912E. Particulars: Pseudomonas aeruginosa, 1912E. Here is the method:
as §1, §2, §3, §4

Experiment [8] has as its system K. pneumoniae β14. The note with it: Klebsiella pneumoniae. Here is the method:
as §1, §2, §3, §4

Experiment [9] has as its system K. pneumoniae 2011E. Particulars: Klebsiella pneumoniae, 2011E. Here is the method: as §1, §2, §3, §4
Experiment [10] relates to E. coli AG100. The note with it: Escherichia coli. Here is the method:
as §1, §2, §3, §4

The subject of experiment [11] is P. aeruginosa 37. Particulars: Pseudomonas aeruginosa, 37, P. aeruginosa 37. Here is the method: as §1, §2, §3, §4
In experiment [12] the test system is K. pneumoniae β11. Particulars: Klebsiella pneumoniae. The method, then: as §1, §2, §3, §4
In experiment [13] the test system is A. baumannii 46. Here is the method:
as §1, §2, §3, §4

For experiment [14], the system named is K. pneumoniae β10. Particulars: Klebsiella pneumoniae. Here is the method: as §1, §2, §3, §4
Experiment [15] deals with K. pneumoniae β13. The note with it: Klebsiella pneumoniae. Here is the method:
as §1, §2, §3, §4

The test system of experiment [16] is P. aeruginosa 6065Y. The note with it: Pseudomonas aeruginosa. Here is the method:
as §1, §2, §3, §4

For experiment [17], the system named is A. calcoaceticus ATCC15473. The note with it: Acinetobacter calcoaceticus. Here is the method:
as §1, §2, §3, §4

Experiment [18] relates to A. baumannii 52. Particulars: Acinetobacter baumannii. The method, then: as §1, §2, §3, §4
For experiment [19], the system named is A. baumannii 49. The method, then:
as §1, §2, §3, §4

Setting [20] is: K. pneumoniae β9, read-out: MIC90.
[21] abbreviates: P. aeruginosa 43, read-out: MIC90.
[22] abbreviates: M. catarrhalis 2524, read-out: MIC90.
Setting [23] is: Pseudomonas aeruginosa, 40, P. aeruginosa 40, read-out: MIC90.
[24] abbreviates: K. pneumoniae 2011E, read-out: MIC90.
Where [25] appears, read: AG100, E. coli AG100, read-out: MIC90.
The mark [26] stands for this setting: K. pneumoniae β11, read-out: MIC90.
Setting [27] is: Acinetobacter baumannii, A. baumannii 46, read-out: MIC90.
Where [28] appears, read: K. pneumoniae β10, read-out: MIC90.
The mark [29] stands for this setting: K. pneumoniae β13, read-out: MIC90.
The mark [30] stands for this setting: A. calcoaceticus ATCC15473, read-out: MIC90.
The mark [31] stands for this setting: A. baumannii 52, read-out: MIC90.
Setting [32] is: Acinetobacter baumannii, A. baumannii 49, read-out: MIC90.

With `CC(C)(O/N=C(\C(=O)N[C@@H]1C(=O)N2C(C(=O)[O-])=C(C[n+]3cnc(N)c(NCCNC(=O)c4cc(=O)c(O)cn4O)c3)CSC12)c1csc(N)n1)C(=O)O` (stereo partly drawn) [Compound 1], the MIC90 in experiment [1] (setting [20]) came to 4 µg/mL (≈ 5.17 µM); in [2] (setting [21]) it was 0.25 µg/mL (≈ 0.323 µM); in experiment [3] (setting [22]) it was 1 µg/mL (≈ 1.29 µM); in experiment [4] (read-out: MIC90) it was 2 µg/mL (≈ 2.58 µM); in [5] (setting [23]) it was 0.25 µg/mL (≈ 0.323 µM); in [6] (read-out: MIC90), 2 µg/mL (≈ 2.58 µM). The MIC90 in [7] (read-out: MIC90) is 0.25 µg/mL (≈ 0.323 µM); in experiment [8] (read-out: MIC90), 128 µg/mL (≈ 165 µM); in [9] (setting [24]) it was 2 µg/mL (≈ 2.58 µM); in [10] (setting [25]) it was less than 0.0625 µg/mL; in experiment [11] (read-out: MIC90), 0.5 µg/mL (≈ 0.646 µM); in experiment [12] (setting [26]), 128 µg/mL (≈ 165 µM). In addition, the MIC90 was 4 µg/mL (≈ 5.17 µM) in experiment [13] (setting [27]); 0.125 µg/mL (≈ 0.162 µM) in experiment [14] (setting [28]); 0.5 µg/mL (≈ 0.646 µM) in experiment [15] (setting [29]); 1 µg/mL (≈ 1.29 µM) in experiment [16] (read-out: MIC90); 0.5 µg/mL (≈ 0.646 µM) in experiment [17] (setting [30]); 32 µg/mL (≈ 41.4 µM) in experiment [18] (setting [31]). In experiment [19] (setting [32]), the MIC90 is 16 µg/mL (≈ 20.7 µM).

`CC(C)(O/N=C(\C(=O)N[C@@H]1C(=O)N2C(C(=O)[O-])=C(C[n+]3cnc(NCCN)c(NCCNC(=O)c4cc(=O)c(O)cn4O)c3)CSC12)c1csc(N)n1)C(=O)O` (stereo partly drawn) [Compound 5]: the MIC90 is less than 0.0625 µg/mL in experiment [1]; 0.25 µg/mL (≈ 0.306 µM) in [2] (43); 0.25 µg/mL (≈ 0.306 µM) in experiment [3] (2524); 0.5 µg/mL (≈ 0.612 µM) in experiment [4]; 1 µg/mL (≈ 1.22 µM) in experiment [5] (Pseudomonas aeruginosa, 40); 0.5 µg/mL (≈ 0.612 µM) in [6]. For the same compound, the MIC90 in experiment [7] is 1 µg/mL (≈ 1.22 µM); in experiment [8], 8 µg/mL (≈ 9.79 µM); in experiment [9] it was 2 µg/mL (≈ 2.45 µM); in experiment [10] (AG100) it was less than 0.0625 µg/mL; in [11], 1 µg/mL (≈ 1.22 µM); in experiment [12], 2 µg/mL (≈ 2.45 µM). For the same compound, the MIC90 in [13] (Acinetobacter baumannii, 46, A. baumannii 46) is 16 µg/mL (≈ 19.6 µM); in experiment [14], 1 µg/mL (≈ 1.22 µM); in experiment [15], 0.5 µg/mL (≈ 0.612 µM); in experiment [16] (6065Y), 4 µg/mL (≈ 4.9 µM); in [17] (ATCC15473, A. calcoaceticus ATCC15473) it was 2 µg/mL (≈ 2.45 µM); in [18] (52), more than 128 µg/mL. In addition, the MIC90 in [19] (Acinetobacter baumannii, 49, A. baumannii 49) is more than 128 µg/mL.

Take `CC(C)(O/N=C(\C(=O)N[C@@H]1C(=O)N2C(C(=O)[O-])=C(C[n+]3cnc(NCCNC(=O)c4cc(=O)c(O)cn4O)c(N)c3)CSC12)c1csc(N)n1)C(=O)O` (stereo partly drawn) [Compound 6]: the MIC90 in experiment [1] (setting [20]) was determined as 2 µg/mL (≈ 2.58 µM); in experiment [2] (setting [21]) it was 0.5 µg/mL (≈ 0.646 µM); in [3] (setting [22]), 2 µg/mL (≈ 2.58 µM); in experiment [4] (read-out: MIC90), 4 µg/mL (≈ 5.17 µM); in [5] (setting [23]), 0.5 µg/mL (≈ 0.646 µM); in experiment [6] (read-out: MIC90) it was 2 µg/mL (≈ 2.58 µM). Besides, the MIC90 in [7] (read-out: MIC90) came out at 0.5 µg/mL (≈ 0.646 µM); in experiment [8] (read-out: MIC90), 16 µg/mL (≈ 20.7 µM); in experiment [9] (setting [24]), 4 µg/mL (≈ 5.17 µM); in experiment [10] (setting [25]) it was 0.25 µg/mL (≈ 0.323 µM); in experiment [11] (read-out: MIC90) it was 0.5 µg/mL (≈ 0.646 µM); in [12] (setting [26]), 8 µg/mL (≈ 10.3 µM). The MIC90 in experiment [13] (setting [27]) is 32 µg/mL (≈ 41.4 µM); in experiment [14] (setting [28]), 0.5 µg/mL (≈ 0.646 µM); in experiment [15] (setting [29]) it was 0.125 µg/mL (≈ 0.162 µM); in experiment [16] (read-out: MIC90), 2 µg/mL (≈ 2.58 µM); in experiment [17] (setting [30]), 2 µg/mL (≈ 2.58 µM); in experiment [18] (setting [31]), more than 128 µg/mL. The MIC90 in [19] (setting [32]) was more than 128 µg/mL.
